{
  "source": "paper PMC11432330",
  "about": "“Novel Drug-like HsrA Inhibitors Exhibit Potent Narrow-Spectrum Antimicrobial Activities against Helicobacter pylori” (International Journal of Molecular Sciences, 2024)",
  "tested_on": "H. pylori 26695",
  "assay": "In vivo inhibition of HsrA: RNA-Seq transcriptomic analysis of exposed cells",
  "format": "cell-based, Helicobacter pylori",
  "settings": "for log2 Fold Change: exposed to lethal concentrations vs control",
  "protocol": "Bacterial growth from three blood agar plates of H. pylori ATCC 700392 (aka 26695) incubated for 48 h at 37 °C under microaerobic conditions was aseptically resuspended in BHI + FBS and adjusted to 10^7 CFU/mL. BHI broth cultures were incubated microaerobically at 37 °C for 24 h. […] At this time, bacterial growth was stopped by adding 1.5 mL ice-cold RNA stop solution (95% absolute ethanol, 5% acid-buffered phenol) and subsequently incubated on ice. Control samples were exposed to the same amount of DMSO instead of the inhibitor. Helicobacter cells from all samples were harvested by centrifugation (4000 rpm at 4 °C for 10 min), then the pellets were quickly frozen by immersion in liquid nitrogen and stored at −80 °C.\nRNA-Seq analysis was performed by GENEWIZ (Azenta Life Sciences, Leipzig, Germany). Frozen cell pellets from two biological replicates of each treatment condition were properly submitted to GENEWIZ in dry ice. RNA-Seq libraries were prepared according to standard protocols via rRNA depletion, RNA fragmentation and random priming, reverse transcription, 5’-phosphorylation and dA-tailing of cDNAs, adaptor ligation, and PCR enrichment. Once the quality of each library was confirmed, they were sequenced on an Illumina NovaSeq 6000 (Illumina, San Diego, CA, USA) with 150-bp paired-ends. Raw sequence reads were filtered to remove possible adapter sequences and nucleotides with poor quality using Trimmomatic v.0.36 [105]. The trimmed reads were subsequently mapped to the H. pylori strain 26695 reference genome NC_000915.1 available on NCBI, by using the Bowtie2 aligner v.2.2.6 [106]. Unique gene hit counts were calculated by using featureCounts from the Subread package v.1.5.2. Only unique reads that fell within the gene regions were counted. Using DESeq2 [108], a comparison of the gene expression between the control and treated groups of samples was performed. The Wald test was used to generate p-values and log2 fold changes. Genes with an adjusted p-value < 0.05 and absolute log2 fold change >1 were considered as differentially expressed genes (DEGs) for each comparison. The RNA-Seq data generated in this study have been deposited in ArrayExpress with the accession number E-MTAB-14255.",
  "key": {"[1]": {"settings": "RNA-Seq, 4 × MIC, vs control samples"}},
  "data": [
    {"smiles": "NC(=NOC(=O)Nc1ccc(Cl)cc1)c1csc([N+](=O)[O-])c1", "note": "[Ligand V, N′-{[(4-chloroanilino)carbonyl]}oxy-5-nitrothiophene-3-carboximidamide]", "values": [
      {"measurement": "Exposure until log10 CFU/mL diminished in one unit", "setting": "4 × MIC, ~3 × 10^7 CFU/mL H. pylori 26695", "result": "~ 2 h"},
      {"measurement": "Depletion in gene expression of 50S ribosomal proteins L21, L35, L27 and 30S ribosomal protein S10", "setting": "RNA-Seq, 4 × MIC", "result": "> 5.8", "unit": "fold"},
      {"measurement": "Downregulation of ferrous iron transporter FeoB", "setting": "RNA-Seq, 4 × MIC", "result": "~ 2.5 fold"},
      {"measurement": "ORFs of the H. pylori genome with influenced expression", "setting": "RNA-Seq, 4 × MIC", "result": 23, "unit": "%"},
      {"measurement": "Upregulation of ferritin (pfr, hp0653)", "setting": "RNA-Seq, 4 × MIC", "result": 4.7, "unit": "fold"},
      {"measurement": "Upregulation of ferritin-like iron-binding protein NapA", "setting": "RNA-Seq, 4 × MIC", "result": 2.3, "unit": "fold"},
      {"measurement": "Genes downregulated", "setting": "[1]", "result": 155},
      {"measurement": "Genes upregulated", "setting": "[1]", "result": 212},
      {"measurement": "ORF with significantly changed transcript levels", "setting": "RNA-Seq, 4 × MIC, absolute log2 fold change > 1, p-value < 0.05", "result": 367},
      {"measurement": "log2 Fold Change HP0013", "setting": "gene HP0013, lethal concentrations of V vs control", "result": 0.182},
      {"measurement": "log2 Fold Change HP0018", "setting": "gene HP0018, lethal concentrations of V vs control", "result": 0.356},
      {"measurement": "log2 Fold Change", "setting": "gene HP0022", "result": -0.512},
      {"measurement": "log2 Fold Change HP0028", "setting": "gene HP0028, lethal concentrations of V vs control", "result": 0.408},
      {"measurement": "log2 Fold Change", "setting": "gene HP0029", "result": -0.496},
      {"measurement": "log2 Fold Change HP0030", "setting": "gene HP0030, lethal concentrations of V vs control", "result": 0.184},
      {"measurement": "log2 Fold Change HP0033", "setting": "gene HP0033, lethal concentrations of V vs control", "result": 0.361},
      {"measurement": "log2 Fold Change", "setting": "gene HP0043", "result": -0.566},
      {"measurement": "log2 Fold Change", "setting": "gene HP0054", "result": -0.519},
      {"measurement": "log2 Fold Change HP0063", "setting": "gene HP0063, lethal concentrations of V vs control", "result": 0.326},
      {"measurement": "log2 Fold Change HP0066", "setting": "gene HP0066, lethal concentrations of V vs control", "result": 0.182},
      {"measurement": "log2 Fold Change HP0081", "setting": "gene HP0081, lethal concentrations of V vs control", "result": 0.173},
      {"measurement": "log2 Fold Change HP0082", "setting": "gene HP0082, lethal concentrations of V vs control", "result": 0.224},
      {"measurement": "log2 Fold Change HP0089", "setting": "gene HP0089, lethal concentrations of V vs control", "result": 0.244},
      {"measurement": "log2 Fold Change", "setting": "gene HP0099", "result": -0.573},
      {"measurement": "log2 Fold Change HP0102", "setting": "gene HP0102, lethal concentrations of V vs control", "result": 0.190},
      {"measurement": "log2 Fold Change HP0104", "setting": "gene HP0104, lethal concentrations of V vs control", "result": 0.451},
      {"measurement": "log2 Fold Change HP0106", "setting": "gene HP0106, lethal concentrations of V vs control", "result": 0.286},
      {"measurement": "log2 Fold Change HP0121", "setting": "gene HP0121, lethal concentrations of V vs control", "result": 0.408},
      {"measurement": "log2 Fold Change HP0138", "setting": "gene HP0138, lethal concentrations of V vs control", "result": 0.430},
      {"measurement": "log2 Fold Change", "setting": "gene HP0141", "result": -0.503},
      {"measurement": "log2 Fold Change", "setting": "gene HP0142", "result": -0.490},
      {"measurement": "log2 Fold Change HP0144", "setting": "gene HP0144, lethal concentrations of V vs control", "result": 0.204},
      {"measurement": "log2 Fold Change HP0145", "setting": "gene HP0145, lethal concentrations of V vs control", "result": 0.164},
      {"measurement": "log2 Fold Change", "setting": "gene HP0149", "result": -0.471},
      {"measurement": "log2 Fold Change", "setting": "gene HP0151", "result": 1.340},
      {"measurement": "log2 Fold Change HP0152", "setting": "gene HP0152, lethal concentrations of V vs control", "result": 0.161},
      {"measurement": "log2 Fold Change HP0155", "setting": "gene HP0155, lethal concentrations of V vs control", "result": 0.192},
      {"measurement": "log2 Fold Change", "setting": "gene HP0159", "result": -0.532},
      {"measurement": "log2 Fold Change HP0166", "setting": "gene HP0166, lethal concentrations of V vs control", "result": 0.208},
      {"measurement": "log2 Fold Change HP0170", "setting": "gene HP0170, lethal concentrations of V vs control", "result": 0.476},
      {"measurement": "log2 Fold Change HP0186", "setting": "gene HP0186, lethal concentrations of V vs control", "result": 0.474},
      {"measurement": "log2 Fold Change HP0195", "setting": "gene HP0195, lethal concentrations of V vs control", "result": 0.229},
      {"measurement": "log2 Fold Change", "setting": "gene HP0202", "result": -0.569},
      {"measurement": "log2 Fold Change HP0209", "setting": "gene HP0209, lethal concentrations of V vs control", "result": 0.364},
      {"measurement": "log2 Fold Change HP0214", "setting": "gene HP0214, lethal concentrations of V vs control", "result": 0.273},
      {"measurement": "log2 Fold Change HP0215", "setting": "gene HP0215, lethal concentrations of V vs control", "result": 0.474},
      {"measurement": "log2 Fold Change HP0221", "setting": "gene HP0221, lethal concentrations of V vs control", "result": 0.231},
      {"measurement": "log2 Fold Change", "setting": "gene HP0222", "result": -0.475},
      {"measurement": "log2 Fold Change HP0224", "setting": "gene HP0224, lethal concentrations of V vs control", "result": 0.431},
      {"measurement": "log2 Fold Change HP0230", "setting": "gene HP0230, lethal concentrations of V vs control", "result": 0.223},
      {"measurement": "log2 Fold Change HP0234", "setting": "gene HP0234, lethal concentrations of V vs control", "result": 0.200},
      {"measurement": "log2 Fold Change", "setting": "gene HP0257", "result": -0.600},
      {"measurement": "log2 Fold Change HP0263", "setting": "gene HP0263, lethal concentrations of V vs control", "result": 0.370},
      {"measurement": "log2 Fold Change HP0267", "setting": "gene HP0267, lethal concentrations of V vs control", "result": 0.453},
      {"measurement": "log2 Fold Change", "setting": "gene HP0268", "result": -0.504},
      {"measurement": "log2 Fold Change", "setting": "gene HP0285", "result": -0.482},
      {"measurement": "log2 Fold Change HP0290", "setting": "gene HP0290, lethal concentrations of V vs control", "result": 0.227},
      {"measurement": "log2 Fold Change", "setting": "gene HP0293", "result": -0.482},
      {"measurement": "log2 Fold Change HP0315", "setting": "gene HP0315, lethal concentrations of V vs control", "result": 0.371},
      {"measurement": "log2 Fold Change HP0316", "setting": "gene HP0316, lethal concentrations of V vs control", "result": 0.320},
      {"measurement": "log2 Fold Change HP0322", "setting": "gene HP0322, lethal concentrations of V vs control", "result": 0.305},
      {"measurement": "log2 Fold Change HP0329", "setting": "gene HP0329, lethal concentrations of V vs control", "result": 0.261},
      {"measurement": "log2 Fold Change HP0338", "setting": "gene HP0338, lethal concentrations of V vs control", "result": 0.386},
      {"measurement": "log2 Fold Change HP0339", "setting": "gene HP0339, lethal concentrations of V vs control", "result": 0.459},
      {"measurement": "log2 Fold Change HP0340", "setting": "gene HP0340, lethal concentrations of V vs control", "result": 0.379},
      {"measurement": "log2 Fold Change HP0348", "setting": "gene HP0348, lethal concentrations of V vs control", "result": 0.281},
      {"measurement": "log2 Fold Change HP0360", "setting": "gene HP0360, lethal concentrations of V vs control", "result": 0.234},
      {"measurement": "log2 Fold Change HP0385", "setting": "gene HP0385, lethal concentrations of V vs control", "result": 0.352},
      {"measurement": "log2 Fold Change HP0391", "setting": "gene HP0391, lethal concentrations of V vs control", "result": 0.386},
      {"measurement": "log2 Fold Change HP0393", "setting": "gene HP0393, lethal concentrations of V vs control", "result": 0.172},
      {"measurement": "log2 Fold Change", "setting": "gene HP0396", "result": -0.496},
      {"measurement": "log2 Fold Change HP0405", "setting": "gene HP0405, lethal concentrations of V vs control", "result": 0.308},
      {"measurement": "log2 Fold Change HP0408", "setting": "gene HP0408, lethal concentrations of V vs control", "result": 0.201},
      {"measurement": "log2 Fold Change HP0416", "setting": "gene HP0416, lethal concentrations of V vs control", "result": 0.330},
      {"measurement": "log2 Fold Change", "setting": "gene HP0418", "result": -0.527},
      {"measurement": "log2 Fold Change HP0420", "setting": "gene HP0420, lethal concentrations of V vs control", "result": 0.289},
      {"measurement": "log2 Fold Change HP0437", "setting": "gene HP0437, lethal concentrations of V vs control", "result": 0.205},
      {"measurement": "log2 Fold Change HP0440", "setting": "gene HP0440, lethal concentrations of V vs control", "result": 0.156},
      {"measurement": "log2 Fold Change HP0441", "setting": "gene HP0441, lethal concentrations of V vs control", "result": 0.254},
      {"measurement": "log2 Fold Change HP0447", "setting": "gene HP0447, lethal concentrations of V vs control", "result": 0.436}
    ]}
  ]
}
